Measured values reported in patent US9113629B2, “4-amino-6-(4-substituted-phenyl)-picolinates and 6-amino-2-(4-substituted-phenyl)-pyrimidine-4-carboxylates and their use as herbicides” (DOW AGROSCIENCES LLC, priority 2013, dated 2015).

System: Key Grass and Sedge Weeds as well as Grass Crops
Test: Post-emergent Test II herbicidal activity (Table 6)
Format: in vivo
Conditions: post-emergence, 336 h, CYPES: yellow nutsedge (Cyperus esculentus), 70 g ai/ha, read-out: Visual Growth Reduction (%) 14 Days After Application, CYPES
Summary of the method: (§1)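 Greenhouse-grown plants at first or second true leaf stage were sprayed post-emergence with compound in acetone/DMSO-based aqueous spray containing crop oil concentrate and surfactant, at 187 L/ha, highest rate plus ½× to 1/16× dilutions. After 14 d, injury was scored visually versus untreated plants, 0 (none) to 100% (complete kill).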

| Compound | pest or weed control at 70 g/ha [%] |
| --- | --- |
| COC(=O)c1nc(-c2cccc(F)c2F)c(F)c(N)c1Cl [Compound 199] | 0 to 29 |

Same assay, conditions: post-emergence, 336 h, CYPES: yellow nutsedge (Cyperus esculentus), 140 g ai/ha, read-out: Visual Growth Reduction (%) 14 Days After Application, CYPES

| Compound | pest or weed control at 140 g/ha [%] |
| --- | --- |
| COC(=O)c1nc(-c2cccc(F)c2F)c(F)c(N)c1Cl [Compound 199] | 0 to 29 |

Same assay, conditions: post-emergence, 336 h, DIGSA: crabgrass (Digitaria sanguinalis), 70 g ai/ha, read-out: Visual Growth Reduction (%) 14 Days After Application, DIGSA

| Compound | pest or weed control at 70 g/ha [%] |
| --- | --- |
| COC(=O)c1nc(-c2cccc(F)c2F)c(F)c(N)c1Cl [Compound 199] | 0 to 29 |

Same assay, conditions: post-emergence, 336 h, DIGSA: crabgrass (Digitaria sanguinalis), 140 g ai/ha, read-out: Visual Growth Reduction (%) 14 Days After Application, DIGSA

| Compound | pest or weed control at 140 g/ha [%] |
| --- | --- |
| COC(=O)c1nc(-c2cccc(F)c2F)c(F)c(N)c1Cl [Compound 199] | 0 to 29 |

Same assay, conditions: post-emergence, 336 h, ECHCG: barnyardgrass (Echinochloa crus-galli), 70 g ai/ha, read-out: Visual Growth Reduction (%) 14 Days After Application, ECHCG

| Compound | pest or weed control at 70 g/ha [%] |
| --- | --- |
| COC(=O)c1nc(-c2cccc(F)c2F)c(F)c(N)c1Cl [Compound 199] | 0 to 29 |

Same assay, conditions: post-emergence, 336 h, ECHCG: barnyardgrass (Echinochloa crus-galli), 140 g ai/ha, read-out: Visual Growth Reduction (%) 14 Days After Application, ECHCG

| Compound | pest or weed control at 140 g/ha [%] |
| --- | --- |
| COC(=O)c1nc(-c2cccc(F)c2F)c(F)c(N)c1Cl [Compound 199] | 0 to 29 |

Same assay, conditions: post-emergence, 336 h, ORYSA: rice (Oryza sativa), crop, 70 g ai/ha, read-out: Visual Growth Reduction (%) 14 Days After Application, ORYSA

| Compound | pest or weed control at 70 g/ha [%] |
| --- | --- |
| COC(=O)c1nc(-c2cccc(F)c2F)c(F)c(N)c1Cl [Compound 199] | 0 to 29 |

Same assay, conditions: post-emergence, 336 h, ORYSA: rice (Oryza sativa), crop, 140 g ai/ha, read-out: Visual Growth Reduction (%) 14 Days After Application, ORYSA

| Compound | pest or weed control at 140 g/ha [%] |
| --- | --- |
| COC(=O)c1nc(-c2cccc(F)c2F)c(F)c(N)c1Cl [Compound 199] | 0 to 29 |

Same assay, conditions: post-emergence, 336 h, SETFA: giant foxtail (Setaria faberi), 70 g ai/ha, read-out: Visual Growth Reduction (%) 14 Days After Application, SETFA

| Compound | pest or weed control at 70 g/ha [%] |
| --- | --- |
| COC(=O)c1nc(-c2cccc(F)c2F)c(F)c(N)c1Cl [Compound 199] | 0 to 29 |

Same assay, conditions: post-emergence, 336 h, SETFA: giant foxtail (Setaria faberi), 140 g ai/ha, read-out: Visual Growth Reduction (%) 14 Days After Application, SETFA

| Compound | pest or weed control at 140 g/ha [%] |
| --- | --- |
| COC(=O)c1nc(-c2cccc(F)c2F)c(F)c(N)c1Cl [Compound 199] | 0 to 29 |

Same assay, conditions: post-emergence, 336 h, SORVU: grain sorghum (Sorghum vulgare), 70 g ai/ha, read-out: Visual Growth Reduction (%) 14 Days After Application, SORVU

| Compound | pest or weed control at 70 g/ha [%] |
| --- | --- |
| COC(=O)c1nc(-c2cccc(F)c2F)c(F)c(N)c1Cl [Compound 199] | 0 to 29 |

Same assay, conditions: post-emergence, 336 h, SORVU: grain sorghum (Sorghum vulgare), 140 g ai/ha, read-out: Visual Growth Reduction (%) 14 Days After Application, SORVU

| Compound | pest or weed control at 140 g/ha [%] |
| --- | --- |
| COC(=O)c1nc(-c2cccc(F)c2F)c(F)c(N)c1Cl [Compound 199] | 0 to 29 |

Same assay, conditions: post-emergence, 336 h, TRZSS (wheat, Triticum aestivum), crop, 70 g ai/ha, read-out: Visual Growth Reduction (%) 14 Days After Application, TRZSS

| Compound | pest or weed control at 70 g/ha [%] |
| --- | --- |
| COC(=O)c1nc(-c2cccc(F)c2F)c(F)c(N)c1Cl [Compound 199] | 0 to 29 |

Same assay, conditions: post-emergence, 336 h, TRZSS (wheat, Triticum aestivum), crop, 140 g ai/ha, read-out: Visual Growth Reduction (%) 14 Days After Application, TRZSS

| Compound | pest or weed control at 140 g/ha [%] |
| --- | --- |
| COC(=O)c1nc(-c2cccc(F)c2F)c(F)c(N)c1Cl [Compound 199] | 0 to 29 |

Same assay, conditions: post-emergence, 336 h, ZEAMX: maize, corn (Zea mays), crop, 70 g ai/ha, read-out: Visual Growth Reduction (%) 14 Days After Application, ZEAMX

| Compound | pest or weed control at 70 g/ha [%] |
| --- | --- |
| COC(=O)c1nc(-c2cccc(F)c2F)c(F)c(N)c1Cl [Compound 199] | 0 to 29 |

Same assay, conditions: post-emergence, 336 h, ZEAMX: maize, corn (Zea mays), crop, 140 g ai/ha, read-out: Visual Growth Reduction (%) 14 Days After Application, ZEAMX

| Compound | pest or weed control at 140 g/ha [%] |
| --- | --- |
| COC(=O)c1nc(-c2cccc(F)c2F)c(F)c(N)c1Cl [Compound 199] | 0 to 29 |

System: Key Broadleaf Weed and Crop Species
Test: Post-emergent Test II herbicidal activity (Table 5)
Format: in vivo
Conditions: post-emergence, 336 h; ABUTH: velvetleaf (Abutilon theophrasti); application rate 70 g ai/ha; 14 days after application; read-out: Visual Growth Reduction (%) 14 Days After Application, ABUTH
Summary of the method: as §1

| Compound | pest or weed control at 70 g/ha [%] |
| --- | --- |
| COC(=O)c1nc(-c2cccc(F)c2F)c(F)c(N)c1Cl [Compound 199] | 95 to 100 |

Same assay, conditions: post-emergence, 336 h; ABUTH: velvetleaf (Abutilon theophrasti); application rate 140 g ai/ha; 14 days after application; read-out: Visual Growth Reduction (%) 14 Days After Application, ABUTH

| Compound | pest or weed control at 140 g/ha [%] |
| --- | --- |
| COC(=O)c1nc(-c2cccc(F)c2F)c(F)c(N)c1Cl [Compound 199] | 95 to 100 |

Same assay, conditions: post-emergence, 336 h; AMARE: redroot pigweed (Amaranthus retroflexus); application rate 70 g ai/ha; 14 days after application; read-out: Visual Growth Reduction (%) 14 Days After Application, AMARE

| Compound | pest or weed control at 70 g/ha [%] |
| --- | --- |
| COC(=O)c1nc(-c2cccc(F)c2F)c(F)c(N)c1Cl [Compound 199] | 95 to 100 |

Same assay, conditions: post-emergence, 336 h; AMARE: redroot pigweed (Amaranthus retroflexus); application rate 140 g ai/ha; 14 days after application; read-out: Visual Growth Reduction (%) 14 Days After Application, AMARE

| Compound | pest or weed control at 140 g/ha [%] |
| --- | --- |
| COC(=O)c1nc(-c2cccc(F)c2F)c(F)c(N)c1Cl [Compound 199] | 95 to 100 |

Same assay, conditions: post-emergence, 336 h; BRSNN: oilseed-rape, canola (Brassica napus); application rate 70 g ai/ha; 14 days after application; read-out: Visual Growth Reduction (%) 14 Days After Application, BRSNN

| Compound | pest or weed control at 70 g/ha [%] |
| --- | --- |
| COC(=O)c1nc(-c2cccc(F)c2F)c(F)c(N)c1Cl [Compound 199] | 85 to 94 |

Same assay, conditions: post-emergence, 336 h; BRSNN: oilseed-rape, canola (Brassica napus); application rate 140 g ai/ha; 14 days after application; read-out: Visual Growth Reduction (%) 14 Days After Application, BRSNN

| Compound | pest or weed control at 140 g/ha [%] |
| --- | --- |
| COC(=O)c1nc(-c2cccc(F)c2F)c(F)c(N)c1Cl [Compound 199] | 95 to 100 |

Same assay, conditions: post-emergence, 336 h; CHEAL: lambsquarters (Chenopodium album); application rate 70 g ai/ha; 14 days after application; read-out: Visual Growth Reduction (%) 14 Days After Application, CHEAL

| Compound | pest or weed control at 70 g/ha [%] |
| --- | --- |
| COC(=O)c1nc(-c2cccc(F)c2F)c(F)c(N)c1Cl [Compound 199] | 85 to 94 |

Same assay, conditions: post-emergence, 336 h; CHEAL: lambsquarters (Chenopodium album); application rate 140 g ai/ha; 14 days after application; read-out: Visual Growth Reduction (%) 14 Days After Application, CHEAL

| Compound | pest or weed control at 140 g/ha [%] |
| --- | --- |
| COC(=O)c1nc(-c2cccc(F)c2F)c(F)c(N)c1Cl [Compound 199] | 95 to 100 |

Same assay, conditions: post-emergence, 336 h; EPHHL: wild poinsettia (Euphorbia heterophylla); application rate 70 g ai/ha; 14 days after application; read-out: Visual Growth Reduction (%) 14 Days After Application, EPHHL

| Compound | pest or weed control at 70 g/ha [%] |
| --- | --- |
| COC(=O)c1nc(-c2cccc(F)c2F)c(F)c(N)c1Cl [Compound 199] | 60 to 74 |

Same assay, conditions: post-emergence, 336 h; EPHHL: wild poinsettia (Euphorbia heterophylla); application rate 140 g ai/ha; 14 days after application; read-out: Visual Growth Reduction (%) 14 Days After Application, EPHHL

| Compound | pest or weed control at 140 g/ha [%] |
| --- | --- |
| COC(=O)c1nc(-c2cccc(F)c2F)c(F)c(N)c1Cl [Compound 199] | 85 to 94 |

Same assay, conditions: post-emergence, 336 h; HELAN: sunflower (Helianthus annuus); application rate 70 g ai/ha; 14 days after application; read-out: Visual Growth Reduction (%) 14 Days After Application, HELAN

| Compound | pest or weed control at 70 g/ha [%] |
| --- | --- |
| COC(=O)c1nc(-c2cccc(F)c2F)c(F)c(N)c1Cl [Compound 199] | 75 to 84 |

Same assay, conditions: post-emergence, 336 h; HELAN: sunflower (Helianthus annuus); application rate 140 g ai/ha; 14 days after application; read-out: Visual Growth Reduction (%) 14 Days After Application, HELAN

| Compound | pest or weed control at 140 g/ha [%] |
| --- | --- |
| COC(=O)c1nc(-c2cccc(F)c2F)c(F)c(N)c1Cl [Compound 199] | 95 to 100 |

Same assay, conditions: post-emergence, 336 h; VIOTR: wild pansy (Viola tricolor); application rate 70 g ai/ha; 14 days after application; read-out: Visual Growth Reduction (%) 14 Days After Application, VIOTR

| Compound | pest or weed control at 70 g/ha [%] |
| --- | --- |
| COC(=O)c1nc(-c2cccc(F)c2F)c(F)c(N)c1Cl [Compound 199] | 0 to 29 |

Same assay, conditions: post-emergence, 336 h; VIOTR: wild pansy (Viola tricolor); application rate 140 g ai/ha; 14 days after application; read-out: Visual Growth Reduction (%) 14 Days After Application, VIOTR

| Compound | pest or weed control at 140 g/ha [%] |
| --- | --- |
| COC(=O)c1nc(-c2cccc(F)c2F)c(F)c(N)c1Cl [Compound 199] | 30 to 44 |
